Source: PubChem BioAssay AID624382 (Sanford-Burnham Center for Chemical Genomics, 2012)
Activity calls are given as the source filed them. How the calls were made is not given here.

molecular target: Small ubiquitin-related modifier 1 (Homo sapiens) (UniProt P63165); assay: SUMO1 protein interaction blockers, potency – biochemical, fluorescence polarization, uHTS hits, dose response (AID 624382); conditions: SUMO1 peptide binding
Sequence (P63165 whole entry, looked up): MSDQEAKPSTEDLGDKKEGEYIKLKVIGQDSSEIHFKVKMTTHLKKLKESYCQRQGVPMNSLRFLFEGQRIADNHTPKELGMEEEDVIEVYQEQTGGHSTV

| SMILES | IC50 |
| --- | --- |
| CCN(CC)P(=O)(NC(=O)C(Cl)(Cl)Cl)N(CC)CC.[Cl-].[Cl-].[Cl-].[Nd+3] | > 66.6 µM (inactive) |
| C=Cc1c(C)c2cc3[nH]c(cc4nc(cc5nc(cc1[nH]2)C(C)=C5CCC(=O)O)C(CCC(=O)O)=C4C)c(C)c3C=C | > 66.6 µM (inactive) |
| C[c-]1[c-](C)[c-](C)[c-](C)[c-]1C.[Fe].c1cc2nccc(N3CCCC3)[c-]2c1 (stereo not drawn) | 11.9 µM |
